# Results as given in patent US5728684A, “Determination of prodrugs metabolizable by the liver and therapeutic use thereof” (priority 1994, dated 1998).
# How the values were obtained:
# [1] = test system: IPdR oxidase; test: Conversion of IPdR to IUdR by cell extracts (human liver); assay type: in vitro ADME; details: 3 samples
# Method: Rat hepatic tissue was washed with ice-cold 1.15% KCl and blotted dry. The tissue was then homogenized with a tissue homogenizer, in a volume of 1.15% KCl that was 3 times the tissue weight, to form a 25% (w/v) homogenate. The homogenate was then centrifuged at 10,000 g for 10 minutes at 4° C. The resulting supernatant was filtered through Miracloth (similar to cheese cloth) then dialyzed overnight against 50 mM Tris-HCl buffer pH 7.5 and stored at -80° C. before use. Rat hepatocytes were obtained by a perfusion technique then the cells were extracted with 10 mM phosphate buffer, pH 7.5, containing 1M KCl and dialyzed for 4 hours against 50 mM Tris-HCl buffer pH 7.5.
# For the standard assay condition, the reaction mixture contained 50 mM Tris-HCl, pH 7.5, 1 mM EDTA, 180 μM of IPdR (or its analogs) and approximately 0.01 mg protein of 10,000 g supernatant of tissue homogenate in a final volume of 500 μl and the incubation was at 37° C. for 10 minutes unless specified otherwise. 300 μl of reaction mixture was removed at the end of incubation and mixed with 630 μl acetonitrile then agitated. […] The samples were reconstituted to the original aliquot volume with the HPLC mobile phase buffer and analyzed on a Alltech RP-18 column. IPdR, IUdR and IU were detected at a UV absorption wavelength of 230 nm, and IPdR was also detected at a UV absorption wavelength of 335 nm. […]
# [2] = test system: Sarcosine oxidase; test: IPdR oxidation by sarcosine oxidase; assay type: biochemical
# Text: In order to determine which enzyme is responsible for the catalysts of this IPdR oxidation, a series of known oxido-reductases which have similar capability to oxidize a carbon atom with an adjacent amino group into a carbonyl functionality were explored for their ability to catalyze IPdR oxidation. […] A mixed function oxidase system prepared from the microsome of rat liver a broad spectrum of substrates and is NADPH dependent. […] Alcohol dehydrogenase (which can be obtained from Sigma) and alcohol oxidase (which can be obtained from Sigma) both reside in the soluble fraction of liver cell extracts, but the conversion of IPdR to […] was not detected with purified preparation of either enzyme under the same conditions that they converted their natural substrates effectively. […]
# [3] = test system: HSV-2; details: Lewandowski et al. 1989; cited from earlier work
smiles,measurement,setting,value
"O=c1ncc(I)cn1[C@H]1C[C@H](O)[C@@H](CO)O1 [IPdR, 1-(2-deoxy-β-D-ribofuranosyl)-5-(iodo)-2-pyrimidinone]",Specific activity of the conversion of IPdR to IUdR,[1],2-7 n mole/mg protein/min
same,IPdR oxidase activity of sarcosine oxidase,[2],no IPdR oxidase activity
same,activity against HSV-2 in cell culture,[3],potent activity
